Reference: EP0907648B1, “QUINOLONE CARBOXYLIC ACIDS SUBSTITUTED BY 7-(3-VINYL-1,4-PIPERAZINE-1-YL)” (BAYER AG, priority 1996, dated 1998)
In brackets after ≈: the same amount, converted by molar mass. Structures can show the parent of a compound that is named as a salt. Where two headings read alike, the source gives them in different places.

Assays:
M. agalactiae PG 2 = assay: MIC (MHK) against mycoplasmas, microscopic reading; assay type: cell-based; conditions: Mycoplasmopsis agalactiae, PG2, incubation 5 to 7 days, read-out: MHK-Werte gegen Mycoplasmen
S. suis = assay: MIC (MHK), agar serial dilution on Iso-Sensitest agar; assay type: cell-based; conditions: Streptococcus suis, 20 h, read-out: MHK-Werte
M. bovis "Donetta" = assay: microbe, parasite or virus in culture; assay type: cell-based; conditions: read-out: MHK-Werte gegen Mycoplasmen
Bordetella = assay: MIC (MHK), agar serial dilution on Iso-Sensitest agar; assay type: cell-based; conditions: Bordetella 9213 GE; for MIC: 20 h, read-out: MHK-Werte
Staph. spp. = assay: as above; assay type: cell-based; conditions: for MIC: 20 h, read-out: MHK-Werte
M. iowae 695 = assay: MIC (MHK) against mycoplasmas, microscopic reading; assay type: cell-based; conditions: incubation 5 to 7 days, read-out: MHK-Werte gegen Mycoplasmen
B. bronchiseptica = assay: MIC (MHK), agar serial dilution on Iso-Sensitest agar; assay type: cell-based; conditions: for MIC: Bordetella bronchiseptica, 20 h, B. bronchiseptica B 9601, read-out: MHK-Werte
S. agalactiae = assay: as above; assay type: cell-based
E. coli = assay: as above; assay type: cell-based; conditions: for MIC: Escherichia coli, 20 h, read-out: MHK-Werte
Source text: (§1) Die minimalen Hemmkonzentrationen (MHK) der erfindungsgemäßen Verbindungen wurden per Reihenverdünnungsverfahren auf Iso-Sensitest Agar (Oxoid) bestimmt. Für jede Prüfsubstanz wurde eine Reihe von Agarplatten hergestellt, die bei jeweils doppelter Verdünnung abfallende Konzentrationen des Wirkstoffs enthielten. Die Agarplatten wurden mit einem Multipoint-Inokulator (Denley) beimpft. Zum Beimpfen wurden Übernachtkulturen der Erreger verwandt, die zuvor so verdünnt wurden, daß jeder Impfpunkt ca. 10^4 koloniebildende Partikel enthielt. Die beimpften Agarplatten wurden bei 37°C bebrütet, und das Keimwachstum wurde nach ca. 20 Stunden abgelesen. Der MHK-Wert (µg/ml) gibt die niedrigste Wirkstoffkonzentration an, bei der mit bloßem Auge kein Wachstum zu erkennen war. Die Erfassung der MHK-Werte für Mycoplasmen erfolgte mikroskopisch nach einer Inkubationszeit von 5 bis 7 Tagen.

Salmonella spp. = assay: as above; assay type: cell-based; conditions: for MIC: 20 h, Salmonella spp. S 9656, read-out: MHK-Werte; for MHK-Werte: Salmonella spp. S 9657
Source text: as §1

M. bovirhinis PG 43 = assay: MIC (MHK) against mycoplasmas, microscopic reading; assay type: cell-based; conditions: incubation 5 to 7 days, read-out: MHK-Werte gegen Mycoplasmen
[1] = tested on: E.-coli-Stammes 6200 Serovar 078; assay: In vivo antibacterial efficacy in E. coli infected chicks (mortality); set-up: species or system Hühner-Küken; conditions: Escherichia coli; chicks infected intrathoracally, oral dose immediately after infection, mortality 48 h after infection
Source text: Die antibakterielle Wirksamkeit der erfindungsgemäßen Verbindung in-vivo wurde folgendermaßen bestimmt. Zwei bis […] (Lohmann-Hybriden, Fa. Lohmann, Cuxhaven) wurden mit 5 x 10^6 KBE/ml des E.-coli-Stammes 6200 Serovar 078 (Prof. Hinz, Hannover) intrathorakal infiziert. Unmittelbar nach der Infektion erhielten jeweils Gruppen von 10 bis 20 Küken den Wirkstoff oral appliziert. Ausgetestet wurden 6 Verdünnungen einer geometrischen Verdünnungsreihe. Die Auswertung erfolgte durch […] 48 Stunden nach der Infektion. Die Wirksamkeit der betreffenden Verbindung wird als ED90 in mg/kg angegeben.

M. gallisepticum PG 31 = assay: MIC (MHK) against mycoplasmas, microscopic reading; assay type: cell-based; conditions: Mycoplasmoides gallisepticum, PG31, incubation 5 to 7 days, read-out: MHK-Werte gegen Mycoplasmen
Pseudomonas spp. = assay: MIC (MHK), agar serial dilution on Iso-Sensitest agar; assay type: cell-based; conditions: 20 h; Pseudomonas spp. P 9510; read-out: MHK-Werte

SMILES | MIC (M. agalactiae PG 2) | MIC (Bordetella) | MIC (Staph. spp.; Staph. spp. 2706) | MIC (Staph. spp.; Staph. spp. 3781 GE) | MIC (Staph. spp.; Staph. spp. B 5520 TGD) | MIC (Staph. spp.; Staph. spp. G 600 LH) | MIC (M. iowae 695) | MHK-Werte (B. bronchiseptica; B. bronchiseptica B 9610) | MHK-Werte (B. bronchiseptica; B. bronchiseptica B 9613) | MHK-Werte (B. bronchiseptica; B. bronchiseptica B 9618) | MIC (B. bronchiseptica) | MIC (E. coli; E. coli 21 Bui) | MIC (E. coli; E. coli 3614 GE) | MIC (E. coli; E. coli 9430 LH) | MIC (E. coli; E. coli Ec 9675) | MIC (E. coli; E. coli G 293 LH) | MIC (Salmonella spp.) | MHK-Werte (Salmonella spp.) | MIC (M. bovirhinis PG 43) | ED90 [1] | other results
C=CC1CN(c2c(F)cc3c(=O)c(C(=O)O)cn(C4CC4)c3c2Cl)CCN1 (centres unmarked) [Bsp. 1, 8-Chlor-1-cyclopropyl-6-fluor-1,4-dihydro-4-oxo-7-(3-vinyl-1,4-piperazin-1-yl)-3-chinolincarbonsäure] | 0.06 µg/mL (≈ 0.153 µM) | 8 µg/mL (≈ 20.4 µM) | 0.06 µg/mL (≈ 0.153 µM) | 1 µg/mL (≈ 2.55 µM) | 1 µg/mL (≈ 2.55 µM) | 1 µg/mL (≈ 2.55 µM) | 0.03 µg/mL (≈ 0.0766 µM) | 0,25 µl/ml | 0,25 µl/ml | 0,25 µl/ml | 0.25 µg/mL (≈ 0.638 µM) | 8 µg/mL (≈ 20.4 µM) | 4 µg/mL (≈ 10.2 µM) | 16 µg/mL (≈ 40.8 µM) | 1 µg/mL (≈ 2.55 µM) | 8 µg/mL (≈ 20.4 µM) | 0.5 µg/mL (≈ 1.28 µM) | 0,5 µl/ml | 0.06 µg/mL (≈ 0.153 µM) | 1.25 mg/kg | MIC (S. suis; S. suis Scc 9588): 0.06 µg/mL (≈ 0.153 µM); MIC (S. suis; S. suis Scc 9591): 0.03 µg/mL (≈ 0.0766 µM); MIC (S. suis; S. suis Scc 9592): 0.25 µg/mL (≈ 0.638 µM); MIC (S. suis; S. suis Scc 9595): 0.03 µg/mL (≈ 0.0766 µM); MIC (S. suis; S. suis Scc 9603): 0.03 µg/mL (≈ 0.0766 µM); MIC (M. bovis "Donetta"): 0.06 µg/mL (≈ 0.153 µM); MHK-Werte (S. agalactiae; S. agalactiae Scc 9514): 0,5 µl/ml; MHK-Werte (S. agalactiae; S. agalactiae Scc 9515): 0,5 µl/ml; MHK-Werte (S. agalactiae; S. agalactiae Scc 9520): 0,5 µl/ml; MHK-Werte (S. agalactiae; S. agalactiae Scc 9524): 0,5 µl/ml; MIC (S. agalactiae; Streptococcus agalactiae, 20 h, S. agalactiae Scc 9513, read-out: MHK-Werte): 0.5 µg/mL (≈ 1.28 µM); MIC (M. gallisepticum PG 31): 0.03 µg/mL (≈ 0.0766 µM); MIC (Pseudomonas spp.): 0.5 µg/mL (≈ 1.28 µM)
C=CC1CN(c2c(F)cc3c(=O)c(C(=O)O)cn(C4CC4)c3c2Cl)CCN1 (centres unmarked) [Bsp. 2, 8-Chlor-1-cyclopropyl-6-fluor-1,4-dihydro-4-oxo-7-(3-vinyl-1,4-piperazin-1-yl)-3-chinolincarbonsäure-Hydrochlorid] | – | – | – | – | – | – | – | – | – | – | – | – | – | – | – | – | – | – | – | – | MHK-Werte (Bordetella): 8 µl/ml; MHK-Werte (Staph. spp.; Staph. spp. 3781 GE): 1 µl/ml; MHK-Werte (E. coli; E. coli 21 Bui): 4 µl/ml; MHK-Werte (E. coli; E. coli 3614 GE): 4 µl/ml; MHK-Werte (E. coli; E. coli 9430 LH): 16 µl/ml; MHK-Werte (E. coli; E. coli G 293 LH): 4 µl/ml
C=CC1CN(c2c(F)cc3c(=O)c(C(=O)O)cn(C4CC4)c3c2Cl)CCN1/C=C/C(=O)OCC (centres unmarked) [Bsp. 3, 8-Chlor-1-cyclopropyl-7-[4-(2-ethoxycarbonyl-vinyl)-3-vinyl-1,4-piperazin-1-yl]-6-fluor-1,4-dihydro-4-oxo-3-chinolincarbonsäure] | – | 16 µg/mL (≈ 32.7 µM) | 0.25 µg/mL (≈ 0.51 µM) | 2 µg/mL (≈ 4.08 µM) | 2 µg/mL (≈ 4.08 µM) | 2 µg/mL (≈ 4.08 µM) | – | – | – | – | – | 8 µg/mL (≈ 16.3 µM) | 8 µg/mL (≈ 16.3 µM) | 32 µg/mL (≈ 65.3 µM) | – | 16 µg/mL (≈ 32.7 µM) | – | – | – | – | –
C=CC1CN(c2c(F)c(N)c3c(=O)c(C(=O)O)cn(C4CC4)c3c2F)CCN1 (centres unmarked) [Bsp. 4, 5-Amino-1-cyclopropyl-6,8-difluor-1,4-dihydro-4-oxo-7-(3-vinyl-1,4-piperazin-1-yl)-chinolincarbonsäure] | 0.03 µg/mL (≈ 0.0768 µM) | – | – | 4 µg/mL (≈ 10.2 µM) | 4 µg/mL (≈ 10.2 µM) | 4 µg/mL (≈ 10.2 µM) | 0.06 µg/mL (≈ 0.154 µM) | 0,25 µl/ml | 0,25 µl/ml | 0,25 µl/ml | 0.25 µg/mL (≈ 0.64 µM) | 16 µg/mL (≈ 41 µM) | 16 µg/mL (≈ 41 µM) | 64 µg/mL (≈ 164 µM) | 0.5 µg/mL (≈ 1.28 µM) | 32 µg/mL (≈ 82 µM) | 0.5 µg/mL (≈ 1.28 µM) | 0,5 µl/ml | 0.25 µg/mL (≈ 0.64 µM) | – | MIC (Staph. spp.; Staph. spp. ST 9640): 0.06 µg/mL (≈ 0.154 µM); MIC (M. gallisepticum PG 31): 0.03 µg/mL (≈ 0.0768 µM)
C=CC1CN(c2cc3c(cc2F)c(=O)c(C(=O)O)cn3C2CC2)CCN1 (centres unmarked) [Bsp. 102 aus EP-A 230 053, 1-Cyclopropyl-6-fluor-1,4-dihydro-4-oxo-7-(3-vinyl-1,4-piperazin-1-yl)-3-chinoloncarbonsäure, reference compound] | – | – | – | – | – | – | – | – | – | – | – | – | – | – | – | – | – | – | – | 5 to 10 mg/kg | –
